Assay results: patent publication US20230190761A1, “METHYLENE BLUE STABILIZED MRNA COMPOSITIONS” (ModernaTX, Inc., priority 2020, published 2023)
Counter-ions that a name gives are not always drawn.

Legend:
Type in all cases: physicochemical
[1] = test system: mRNA within LNP formulations; assay: Screen of molecular dyes on mRNA stability within LNP formulations (RP-HPLC); settings: for Main Peak Purity after 4 days at 40° C. (%): 2 mM dye in mRNA-LNP, RP-HPLC, no value (—) = physically unstable, no reliable chromatographic result, interpreted as destabilizing; for Difference relative to No Dye: main peak purity, ±4% interpreted as significant; for Difference relative to No Dye / stabilization effect on mRNA in LNP: 2 mM dye, 4 days at 40° C.
Experimental: This example discusses the effects of various dye molecules on mRNA stability within LNP formulations. To evaluate the potential stabilization effects of dyes, LNP compositions were prepared containing 2 mM of one of 25 dyes. After incubation for 4 days at 40° C., main peak mRNA purity was measured by RP-HPLC. Variance within this study was estimated from three independent sample replicates with no dye (Sample IDs D0a, D0b and D0c as shown in Table 4) or with 2 mM methylene blue (Sample IDs D1a, D1b and D1c as shown in Table 4). […] The main peak purity measured in each mRNA-LNP formulation, as well as its difference relative to the no dye controls is shown in Table 4. Positive differences relative to no dye represent improvements in mRNA stability, and negative differences represent worsened mRNA stability.

[2] = test system: lipid nanoparticles (LNP); assay: Permeation of phenothiazinium dyes into LNP and binding to encapsulated mRNA; settings: optical spectroscopic studies, Cryo-EM, DLS, isothermal titration calorimetry
Text: This example describes phenothiazinium dyes which interact with mRNA and their impact on LNP formulations. […] These interpretations were made based on extensive optical spectroscopic studies, Cryo-EM, dynamic light scattering (DLS) and isothermal titration calorimetry studies.

mRNA-LNP = assay: Conventional antioxidants versus methylene blue on mRNA-LNP stability; settings: 2 mM KDS, 5 mM KDS or 5 mM methionine, presence or absence of 2 mM methylene blue
Experimental: This example discusses the effects of conventional pharmaceutical antioxidants on mRNA stability. To evaluate the effects conventional pharmaceutical antioxidants might have on mRNA stability relative to methylene blue, a direct comparative study was performed between methionine, potassium metabisulfite (KDS) and methylene blue. mRNA purity was measured after incubation of mRNA-LNP compositions with no additive, or with 2 mM KDS, 5 mM KDS, or 5 mM methionine, in the presence or absence of 2 mM methylene blue.

Molecule	Main Peak Purity after 4 days at 40° C. (%) [1]	Difference relative to No Dye [1]	permeation of lipid nanoparticles and binding to encapsulated mRNA [2]	stabilization effect on mRNA in LNP [1]	stabilization effect on mRNA purity (mRNA-LNP)
Cc1c(C(=O)O)c(O)cc2c1C(=O)c1c(O)c(C3O[C@H](CO)[C@@H](O)[C@H](O)[C@H]3O)c(O)c(O)c1C2=O (stereo in doubt) [Carmine]	74.27%	−1%	–	–	–
CN(C)c1ccc2cc3ccc(N(C)C)cc3nc2c1 [Acridine Orange hydrochloride hydrate]	69.92%	−5%	–	–	–
CN(C)c1ccc2nc3ccc(N)cc3[s+]c2c1 [Azure A chloride]	90.36%	15%	can permeate lipid nanoparticles (LNP) and bind to encapsulated mRNA without altering the gross structure of the LNP	stabilization effects similar to that of methylene blue	–
CNc1ccc2nc3ccc(=[N+](C)C)cc-3sc2c1 [Azure B]	90.16%	15%	can permeate lipid nanoparticles (LNP) and bind to encapsulated mRNA without altering the gross structure of the LNP	stabilization effects similar to that of methylene blue	–
CN(C)c1ccc(C(=C2C=CC(=[N+](C)C)C=C2)c2ccc(N(C)C)cc2)cc1 [Crystal Violet]	24.79%	−50%	–	–	–
O=C(O)c1ccccc1-c1c2cc([N+](=O)[O-])c(=O)c(Br)c-2oc2c(Br)c(O)c([N+](=O)[O-])cc12 [Eosin B]	78.00%	3%	–	–	–
Oc1cc2c(cc1O)[C@@H]1c3ccc(O)c(O)c3OC[C@]1(O)C2 [Hematoxylin]	39.82%	−35%	–	–	–
O=S([O-])S(=O)(=O)[O-].[K+].[K+] [KDS, potassium metabisulfite]	–	–	–	–	Neither KDS nor methionine showed any stabilization effect
Cc1cc2nc3ccc(=[N+](C)C)cc-3[nH]c2cc1N [Neutral Red]	59.34%	−16%	–	–	–
CCNc1cc2[s+]c3cc(NCC)c(C)cc3nc2cc1C [New methylene blue N]	68.61%	−6%	–	–	–
CCN(CC)c1ccc2nc3c4ccccc4c(=N)cc-3oc2c1 [Nile Blue A]	70.75%	−4%	–	–	–
CCN(CC)c1ccc2nc3c4ccccc4c(=O)cc-3oc2c1 [Nile Red]	77.56%	3%	–	–	–
CN(C)c1ccc2cc3ccc(=[N+](C)C)cc-3oc2c1.[Cl-] [Pyronin Y]	68.68%	−6%	–	–	–
Cc1cc2nc3cc(C)c(N)cc3[n+](-c3ccccc3)c2cc1N [Safranin O]	89.14%	14%	–	stabilization effects similar to that of methylene blue	–
O=[N+]([O-])[O-].[Ag+] [Silver nitrate (0.1 N), Silver nitrate]	77.90%	3%	–	–	–
Cc1cc2nc3ccc(N(C)C)cc3[s+]c2cc1N [Toluidine Blue O]	74.66%	0%	–	–	–
CSCC[C@H](N)C(=O)O [methionine]	–	–	–	–	Neither KDS nor methionine showed any stabilization effect
Bromophenol Blue sodium salt	35.53%	−39%	–	–	–
Leucomethylene Blue (mesylate)	89.46%	14%	–	stabilization effects similar to that of methylene blue	–
